Counter-ions that a name gives are not always drawn.
Experiments:
[1] = biological target: T1, HCV polymerase (NS5B) type 1a (Hepatitis C virus genotype 1a, UniProt P26664); test: Assay of enzyme (HCV polymerase) inhibitory activity, type 1a enzyme; assay type: biochemical, HCV type 1a (cloned from the blood of patients)
T1 construct: made in house; host or cells: Escherichia coli (by the 'similar method' of the 1b enzyme)
Method in brief: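 Reactions ran 60 min at 25° C in 20 mM Tris-HCl pH 7.5, 5 mM MgCl2, 50 mM NaCl, holding genotype 1a NS5B (1.5 μg/ml, Δ47 C-terminus, 6His), substrate RNA 5 μg/ml, UTP 2 μM with tritiated UTP and other NTPs 50 μM. IC50 derived from incorporated radiolabel in filter-trapped RNA relative to uninhibited reaction.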

[2] = biological target: T2, HCV polymerase (NS5B) type 1b (Hepatitis C virus genotype 1b, UniProt P26663); test: Assay of enzyme (HCV polymerase) inhibitory activity, type 1b enzyme; assay type: biochemical, HCV BK strain (type 1b)
T2 construct: a region encoding NS5B (J Virol 1991 March, 65(3), 1105-13, 544 amino acids after deletion of 47 amino acids on the C-terminal); 6xHis (C); made in house; host or cells: Escherichia coli
Method in brief: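 IC50 derived from [3H]UTP incorporation into TCA-insoluble RNA, compared with and without test compound. Reaction (25 °C, 60 min, Tris pH 7.5, 5 mM MgCl2): E. coli-expressed 1b NS5B Δ47 with His tag at 0.5 μg/ml, 5 μg/ml run-off substrate RNA, ATP/GTP/CTP 50 μM, UTP 2 μM.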

[3] = HCV polymerase inhibitory activity IC50, 1a, type 1a enzyme
[4] = HCV polymerase inhibitory activity IC50, 1b, type 1b enzyme
[5] = HCV polymerase inhibitory activity (IC50), 1a, type 1a enzyme 1.5 μg/ml, 25° C., 60 min
[6] = HCV polymerase inhibitory activity (IC50), 1b, type 1b enzyme 0.5 μg/ml, 25° C., 60 min

Compound | IC50 [1, 3] [nM] | IC50 [2, 4] [nM] | IC50 [1, 5] [nM] | IC50 [2, 6] [nM]
CCC(F)(F)c1ccc(CNC(=O)[C@H]2CN(c3cnc4cncnc4n3)CCN2S(=O)(=O)c2ccc(-c3cccc(OCC(=O)O)c3)cc2)cc1 [Example 732, (4′-{(R)-2-[4-(1,1-difluoro-propyl)-benzylcarbamoyl]-4-pteridin-7-yl-piperazine-1-sulfonyl}-biphenyl-3-yloxy)-acetic acid] | < 100 | < 100 | – | –
COCc1nc(N)c2sc(N3CCN(S(=O)(=O)c4ccc(OC(F)(F)F)cc4)[C@@H](C(=O)NCc4ccc(OC(F)(F)F)cc4)C3)nc2n1 [Example 1055, (R)-4-(7-amino-5-methoxymethyl-thiazolo[4,5-d]pyrimidin-2-yl)-1-(4-trifluoromethoxy-benzenesulfonyl)-piperazine-2-carboxylic acid 4-trifluoromethoxy-benzylamide] | < 100 | < 100 | – | –
CCCc1ccc(CNC(=O)[C@H]2CN(c3nc(Cl)c(C(=O)O)s3)CCN2S(=O)(=O)c2ccc(CC)cc2)cc1 [Example 868, 4-chloro-2-[(R)-4-(4-ethyl-benzenesulfonyl)-3-(4-propyl-benzylcarbamoyl)-piperazin-1-yl]-thiazole-5-carboxylic acid] | < 100 | < 100 | – | –
CC(C)c1ccc(S(=O)(=O)N2CCN(c3nc4c(s3)Cc3ccccc3-4)CC2C(=O)NCc2ccc(C(F)(F)F)cc2)cc1 (stereo not shown) [Example 155, 4-(8H-indeno[1,2-d]thiazol-2-yl)-1-(4-isopropyl-benzenesulfonyl)-piperazine-2-carboxylic acid 4-trifluoromethyl-benzylamide] | – | – | > 1000 | > 1000
CC(=O)N1CCN(S(=O)(=O)c2ccc(C(C)C)cc2)C(C(=O)NCc2ccc(N(C)CCO)cc2)C1 (stereo not shown) [Example 181, 4-acetyl-1-(4-isopropyl-benzenesulfonyl)-piperazine-2-carboxylic acid 4-[(2-hydroxy-ethyl)-methyl-amino]-benzylamide] | – | – | > 1000 | > 1000
Cc1nc(Cl)c2sc(N3CCN(S(=O)(=O)c4ccc(OC(F)(F)F)cc4)[C@@H](C(=O)NCc4ccc(OC(F)F)cc4)C3)nc2n1 [Example 941, (R)-4-(7-chloro-5-methyl-thiazolo[4,5-d]pyrimidin-2-yl)-1-(4-trifluoromethoxy-benzenesulfonyl)-piperazine-2-carboxylic acid 4-difluoromethoxy-benzylamide] | < 100 | < 100 | – | –
Cc1nc(N2CCN(S(=O)(=O)c3ccc(C(F)(F)F)cc3)[C@@H](C(=O)NCc3ccc(C(C)C)cc3)C2)oc1C(=O)O [Example 371, 2-[(R)-3-(4-isopropyl-benzylcarbamoyl)-4-(4-trifluoromethyl-benzenesulfonyl)-piperazin-1-yl]-4-methyl-oxazole-5-carboxylic acid trifluoroacetate] | – | – | 100 to 1000 | 100 to 1000
CC(C)c1cc(=O)nc2sc(N3CCN(S(=O)(=O)c4ccc(OC(F)(F)F)cc4)[C@@H](C(=O)NCc4ccc(OC(F)F)cc4)C3)nn12 [Example 1089, (R)-4-(5-isopropyl-7-oxo-7H-[1,3,4]thiadiazolo[3,2-a]pyrimidin-2-yl)-1-(4-trifluoromethoxy-benzenesulfonyl)-piperazine-2-carboxylic acid 4-difluoromethoxy-benzylamide] | < 100 | < 100 | – | –
COC(=O)C(C)(C)c1ccc(CNC(=O)[C@H]2CN(C(C)=O)CCN2S(=O)(=O)c2ccc(C(C)C)cc2)cc1 [Example 223, 2-[4-({[(R)-4-acetyl-1-(4-isopropyl-benzenesulfonyl)-piperazine-2-carbonyl]-amino}-methyl)-phenyl]-2-methyl-propionic acid methyl ester] | – | – | 100 to 1000 | 100 to 1000
CC(C)(C)c1ccc(CNC(=O)[C@H]2CN(c3nc4c(s3)C(=O)NCC4)CCN2S(=O)(=O)c2ccc(OC(F)(F)F)cc2)cc1 [Example 578, (R)-4-(4-oxo-4,5,6,7-tetrahydro-thiazolo[5,4-c]pyridin-2-yl)-1-(4-trifluoromethoxy-benzenesulfonyl)-piperazine-2-carboxylic acid 4-tert-butyl-benzylamide] | – | – | < 100 | < 100
CC(C)(C)NC(=O)c1cnc(N2CCN(S(=O)(=O)c3ccc(OC(F)(F)F)cc3)[C@@H](C(=O)NCc3ccc(OC(F)(F)F)cc3)C2)cn1 [Example 853, (R)-4-(4-trifluoromethoxy-benzenesulfonyl)-3,4,5,6-tetrahydro-2H-[1,2′]bipyrazinyl-3,5′-dicarboxylic acid 5′-tert-butylamide 3-(4-trifluoromethoxy-benzylamide)] | > 1000 | 100 to 1000 | – | –
COC(=O)CN1CCN(S(=O)(=O)c2ccc(I)cc2)C(C(=O)NCc2ccc(N(C)C)cc2)C1 (stereo not shown) [Example 94, [3-(4-dimethylamino-benzylcarbamoyl)-4-(4-iodo-benzenesulfonyl)-piperazin-1-yl]-acetic acid methyl ester] | – | – | > 1000 | > 1000
O=C(O)c1ccc(N2CCN(S(=O)(=O)c3ccc(OC(F)(F)F)cc3)[C@@H](C(=O)NCc3ccc(OC(F)(F)F)cc3)C2)nc1 [Example 774, 6-[(R)-4-(4-trifluoromethoxy-benzenesulfonyl)-3-(4-trifluoromethoxy-benzylcarbamoyl)-piperazin-1-yl]-nicotinic acid] | < 100 | < 100 | – | –
CCCc1ccc(CNC(=O)[C@H]2CN(C(=O)Cn3nnc(CC(=O)OCC)n3)CCN2S(=O)(=O)c2ccc(OC(F)(F)F)cc2)cc1 [Example 455, (2-{2-oxo-2-[(R)-3-(4-propyl-benzylcarbamoyl)-4-(4-trifluoromethoxy-benzenesulfonyl)-piperazin-1-yl]-ethyl}-2H-tetrazol-5-yl)-acetic acid ethyl ester] | – | – | < 100 | < 100
O=C(NCc1ccc(OC(F)(F)F)cc1)[C@H]1CN(c2nc3cn[nH]c(=O)c3s2)CCN1S(=O)(=O)c1ccc(Br)cc1 [Example 881, (R)-1-(4-bromo-benzenesulfonyl)-4-(7-oxo-6,7-dihydro-thiazolo[4,5-d]pyridazin-2-yl)-piperazine-2-carboxylic acid 4-trifluoromethoxy-benzylamide] | < 100 | < 100 | – | –
CC(C)c1ccc(CNC(=O)[C@H]2CN(c3cnn(CC(=O)O)c3)CCN2S(=O)(=O)c2ccc(OC(F)(F)F)cc2)cc1 [Example 493, {4-[(R)-3-(4-isopropyl-benzylcarbamoyl)-4-(4-trifluoromethoxy-benzenesulfonyl)-piperazin-1-yl]-pyrazol-1-yl}-acetic acid] | – | – | 100 to 1000 | 100 to 1000
CC(=O)N1CCN(S(=O)(=O)c2ccc(C)cc2)C(C(=O)NCc2ccc(C(F)(F)F)cc2)C1 (stereo not shown) [Example 64, 4-acetyl-1-(toluene-4-sulfonyl)-piperazine-2-carboxylic acid 4-trifluoromethyl-benzylamide] | – | – | > 1000 | > 1000
COc1ccccc1CCNC(=O)[C@H]1CN(C(C)=O)CCN1S(=O)(=O)c1ccc(OC(F)(F)F)cc1 [Example 671, (R)-4-acetyl-1-(4-trifluoromethoxy-benzenesulfonyl)-piperazine-2-carboxylic acid [2-(2-methoxy-phenyl)-ethyl]-amide] | > 1000 | > 1000 | – | –
CC(C)c1ccc(S(=O)(=O)N2CCN(c3nc4c(s3)CCCC4)CC2C(=O)NCc2ccc(C(F)(F)F)cc2)cc1 (stereo not shown) [Example 156, 1-(4-isopropyl-benzenesulfonyl)-4-(4,5,6,7-tetrahydro-benzothiazol-2-yl)-piperazine-2-carboxylic acid 4-trifluoromethyl-benzylamide] | – | – | > 1000 | > 1000
CC(C)c1ccc(CNC(=O)[C@H]2CN(C(=O)Nc3ccncc3)CCN2S(=O)(=O)c2ccc(OC(F)(F)F)cc2)cc1 [Example 318, (R)-4-(4-trifluoromethoxy-benzenesulfonyl)-piperazine-1,3-dicarboxylic acid 3-(4-isopropyl-benzylamide) 1-pyridin-4-ylamide] | – | – | < 100 | < 100
CCCc1ccc(CNC(=O)[C@H]2CN(c3cnc4cncc(C(=O)O)c4n3)CCN2S(=O)(=O)c2ccc(CC)cc2)cc1 [Example 815, 2-[(R)-4-(4-ethyl-benzenesulfonyl)-3-(4-propyl-benzylcarbamoyl)-piperazin-1-yl]-pyrido[3,4-b]pyrazine-8-carboxylic acid] | < 100 | < 100 | – | –
CCC(F)(F)c1ccc(CNC(=O)[C@H]2CN(c3nc4nc(C)ncc4s3)CCN2S(=O)(=O)c2ccc(C(F)(F)F)cc2)cc1 [Example 935, (R)-4-(5-methyl-thiazolo[4,5-d]pyrimidin-2-yl)-1-(4-trifluoromethyl-benzenesulfonyl)-piperazine-2-carboxylic acid 4-(1,1-difluoro-propyl)-benzylamide] | < 100 | < 100 | – | –
CC(C)c1ccc(CNC(=O)[C@H]2CN(C(=O)NCc3ccccc3)CCN2S(=O)(=O)c2ccc(C(F)(F)F)cc2)cc1 [Example 243, (R)-4-(4-trifluoromethyl-benzenesulfonyl)-piperazine-1,3-dicarboxylic acid 1-benzylamide 3-(4-isopropyl-benzylamide)] | – | – | > 1000 | > 1000

Reference: patent US8017612B2, “Piperazine compound and use thereof as a HCV polymerase inhibitor” (priority 2006, dated 2011)
